What was measured:
JAK2 = target: T1, JAK2 (Homo sapiens, UniProt O60674); assay: Kinobeads assay, JAK2; assay type: binding; settings: mixed Molt4/Ramos cell lysate, dot blot detection
T1 construct: endogenous in cells; host or cells: Mixed Molt4/Ramos lysate (1:2)
Procedure, shortened: (§1)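 Competition pulldown: compound dilution series incubated 3 h in cold room with immobilized aminopyrido-pyrimidine beads and mixed Molt4/Ramos lysate (1:2, 10 mg/mL protein) in DP buffer pH 7.4 with NP40. Bead-bound JAK2/JAK3 eluted, quantified by antibody dot blot with infrared detection; IC50 from dose-response curves.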

JAK3 = target: T2, JAK3 (Homo sapiens, UniProt P52333); assay: Kinobeads assay, JAK3; assay type: binding; settings: mixed Molt4/Ramos cell lysate, dot blot detection
T2 construct: endogenous in cells; host or cells: Mixed Molt4/Ramos lysate (1:2)
T2 sequence (P52333 1-1124): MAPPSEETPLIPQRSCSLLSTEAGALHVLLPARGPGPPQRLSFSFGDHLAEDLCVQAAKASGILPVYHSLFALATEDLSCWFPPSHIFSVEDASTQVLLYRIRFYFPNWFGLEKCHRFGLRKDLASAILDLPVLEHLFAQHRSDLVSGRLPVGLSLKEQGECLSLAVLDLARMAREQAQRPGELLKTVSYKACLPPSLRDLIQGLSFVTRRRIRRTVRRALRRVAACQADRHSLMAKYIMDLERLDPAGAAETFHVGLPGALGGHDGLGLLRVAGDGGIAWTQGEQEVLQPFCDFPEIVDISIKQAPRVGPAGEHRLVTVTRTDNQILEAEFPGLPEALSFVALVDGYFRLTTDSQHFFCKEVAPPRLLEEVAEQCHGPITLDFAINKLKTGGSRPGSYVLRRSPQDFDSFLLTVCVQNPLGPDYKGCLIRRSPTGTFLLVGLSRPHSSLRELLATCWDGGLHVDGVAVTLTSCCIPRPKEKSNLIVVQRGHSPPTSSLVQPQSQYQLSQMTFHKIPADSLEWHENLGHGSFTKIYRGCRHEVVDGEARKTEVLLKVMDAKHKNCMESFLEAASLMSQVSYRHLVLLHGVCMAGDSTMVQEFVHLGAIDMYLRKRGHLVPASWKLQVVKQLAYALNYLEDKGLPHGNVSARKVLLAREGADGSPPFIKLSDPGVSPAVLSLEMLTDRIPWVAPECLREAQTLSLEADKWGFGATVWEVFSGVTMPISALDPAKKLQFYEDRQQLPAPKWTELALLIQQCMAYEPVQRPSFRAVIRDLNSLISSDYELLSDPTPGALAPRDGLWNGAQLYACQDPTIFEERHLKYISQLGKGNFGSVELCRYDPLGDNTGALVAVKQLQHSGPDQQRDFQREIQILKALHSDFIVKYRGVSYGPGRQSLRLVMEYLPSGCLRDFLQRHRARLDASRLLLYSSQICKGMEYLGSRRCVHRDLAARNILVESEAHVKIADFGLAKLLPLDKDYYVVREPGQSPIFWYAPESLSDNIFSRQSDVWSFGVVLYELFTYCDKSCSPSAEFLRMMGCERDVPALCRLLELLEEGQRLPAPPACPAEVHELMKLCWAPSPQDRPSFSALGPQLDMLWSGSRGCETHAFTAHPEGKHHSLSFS
Procedure, shortened: as §1

T1 sequence (O60674 whole entry): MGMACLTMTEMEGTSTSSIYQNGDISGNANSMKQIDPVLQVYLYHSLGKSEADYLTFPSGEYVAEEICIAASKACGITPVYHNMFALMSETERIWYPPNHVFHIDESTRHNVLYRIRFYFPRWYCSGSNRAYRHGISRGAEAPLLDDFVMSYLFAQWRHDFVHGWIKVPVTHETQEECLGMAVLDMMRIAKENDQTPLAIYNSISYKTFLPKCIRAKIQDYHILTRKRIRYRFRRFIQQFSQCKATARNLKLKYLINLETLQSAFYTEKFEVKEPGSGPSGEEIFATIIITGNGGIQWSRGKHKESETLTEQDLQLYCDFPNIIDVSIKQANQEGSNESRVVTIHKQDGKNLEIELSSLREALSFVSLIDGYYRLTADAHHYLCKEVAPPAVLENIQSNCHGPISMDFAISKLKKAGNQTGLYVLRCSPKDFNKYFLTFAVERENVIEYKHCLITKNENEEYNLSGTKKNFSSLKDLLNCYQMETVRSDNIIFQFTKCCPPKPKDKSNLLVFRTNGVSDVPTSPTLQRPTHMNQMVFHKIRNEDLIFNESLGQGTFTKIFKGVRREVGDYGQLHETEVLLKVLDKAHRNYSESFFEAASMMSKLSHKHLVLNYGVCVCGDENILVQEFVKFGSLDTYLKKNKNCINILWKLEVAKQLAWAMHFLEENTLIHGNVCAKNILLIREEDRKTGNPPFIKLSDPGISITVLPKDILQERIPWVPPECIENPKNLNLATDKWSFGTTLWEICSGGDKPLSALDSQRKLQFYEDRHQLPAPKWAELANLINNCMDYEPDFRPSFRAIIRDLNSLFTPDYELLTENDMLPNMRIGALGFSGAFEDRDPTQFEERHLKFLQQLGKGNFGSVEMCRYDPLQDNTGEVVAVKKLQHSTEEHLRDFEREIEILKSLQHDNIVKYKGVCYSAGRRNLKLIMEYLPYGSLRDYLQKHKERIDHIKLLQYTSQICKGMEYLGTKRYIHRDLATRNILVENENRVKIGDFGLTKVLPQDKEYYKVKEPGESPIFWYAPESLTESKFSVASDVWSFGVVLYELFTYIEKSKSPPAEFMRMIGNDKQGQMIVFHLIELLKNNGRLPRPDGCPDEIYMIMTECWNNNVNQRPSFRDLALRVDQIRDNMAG

Row | Structure (SMILES) | IC50 (JAK2) | IC50 (JAK3)
1 | Cn1cc(Nc2ncc3cnn(-c4ccc(Cl)cc4)c3n2)cn1 [Example 57, 1-(4-Chlorophenyl)-N-(1-methyl-1H-pyrazol-4-yl)-1H-pyrazolo[3,4-d]pyrimidin-6-amine] | ≥ 10000 nM | 100 to 1000 nM
2 | COc1cc(-n2ncc3cnc(Nc4cnn(C)c4)nc32)ccc1F [Example 58, 1-(4-Fluoro-3-methoxyphenyl)-N-(1-methyl-1H-pyrazol-4-yl)-1H-pyrazolo[3,4-d]pyrimidin-6-amine] | ≥ 10000 nM | 100 to 1000 nM
3 | Cc1cc(-n2ncc3cnc(Nc4cnn(C)c4)nc32)ccc1F [Example 60, 1-(4-fluoro-3-methylphenyl)-N-(1-methyl-1H-pyrazol-4-yl)-1H-pyrazolo[3,4-d]pyrimidin-6-amine] | 1000 to 10000 nM | 100 to 1000 nM
4 | Cn1cc(Nc2ncc3cnn(-c4ccc(S(C)(=O)=O)cc4)c3n2)cn1 [Example 61, N-(1-methyl-1H-pyrazol-4-yl)-1-(4-(methylsulfonyl)phenyl)-1H-pyrazolo[3,4-d]pyrimidin-6-amine] | 1000 to 10000 nM | 100 to 1000 nM
5 | Cn1cc(Nc2ncc3cnn(Cc4cc(F)ccc4Cl)c3n2)cn1 [Example 62, 1-(2-Chloro-5-fluorobenzyl)-N-(1-methyl-1H-pyrazol-4-yl)-1H-pyrazolo[3,4-d]pyrimidin-6-amine] | < 100 nM | < 100 nM
6 | Cn1cc(Nc2ncc3cnn(Cc4c(F)cccc4Cl)c3n2)cn1 [Example 63, 1-(2-Chloro-6-fluorobenzyl)-N-(1-methyl-1H-pyrazol-4-yl)-1H-pyrazolo[3,4-d]pyrimidin-6-amine] | 100 to 1000 nM | < 100 nM
7 | Cn1cc(Nc2ncc3cnn(Cc4cc(Cl)ccc4F)c3n2)cn1 [Example 64] | 100 to 1000 nM | < 100 nM
8 | Cn1cc(Nc2ncc3cnn(Cc4ccccc4C(F)(F)F)c3n2)cn1 [Example 65, N-(1-Methyl-1H-pyrazol-4-yl)-1-(2-(trifluoromethyl)benzyl)-1H-pyrazolo[3,4-d]pyrimidin-6-amine] | 1000 to 10000 nM | < 100 nM

Other lines, results leading:

Row | IC50 (JAK2) | IC50 (JAK3) | Structure (SMILES)
9 | ≥ 10000 nM | 100 to 1000 nM | Cn1cc(Nc2ncc3cnn(Cc4cccc(C(F)(F)F)c4)c3n2)cn1 [Example 66, N-(1-Methyl-1H-pyrazol-4-yl)-1-(3-(trifluoromethyl)benzyl)-1H-pyrazolo[3,4-d]pyrimidin-6-amine]
10 | 100 to 1000 nM | < 100 nM | Cn1cc(Nc2ncc3cnn(Cc4cccc(F)c4)c3n2)cn1 [Example 67, 1-(3-Fluorobenzyl)-N-(1-methyl-1H-pyrazol-4-yl)-1H-pyrazolo[3,4-d]pyrimidin-6-amine]
11 | 1000 to 10000 nM | < 100 nM | Cn1cc(Nc2ncc3cnn(Cc4cccc(C#N)c4)c3n2)cn1 [Example 68, 3-((6-((1-Methyl-1H-pyrazol-4-yl)amino)-1H-pyrazolo[3,4-d]pyrimidin-1-yl)methyl)benzonitrile]
12 | 1000 to 10000 nM | < 100 nM | COc1cccc(Cn2ncc3cnc(Nc4cnn(C)c4)nc32)c1 [Example 69, 1-(3-Methoxybenzyl)-N-(1-methyl-1H-pyrazol-4-yl)-1H-pyrazolo[3,4-d]pyrimidin-6-amine]
13 | 100 to 1000 nM | < 100 nM | Cn1cc(Nc2ncc3cnn(Cc4cccc(Cl)c4)c3n2)cn1 [Example 70, 1-(3-Chlorobenzyl)-N-(1-methyl-1H-pyrazol-4-yl)-1H-pyrazolo[3,4-d]pyrimidin-6-amine]
14 | ≥ 10000 nM | 100 to 1000 nM | COc1nn(CC(F)F)cc1Nc1ncc2cnn(-c3ccc(S(N)(=O)=O)cc3)c2n1 [Example 71, 4-(6-((1-(2,2-Difluoroethyl)-3-methoxy-1H-pyrazol-4-yl)amino)-1H-pyrazolo[3,4-d]pyrimidin-1-yl)benzenesulfonamide]
15 | 1000 to 10000 nM | < 100 nM | Cn1cc(Nc2ncc3cnn(Cc4cccc(Cl)c4F)c3n2)cn1 [Example 72, 1-(3-Chloro-2-fluorobenzyl)-N-(1-methyl-1H-pyrazol-4-yl)-1H-pyrazolo[3,4-d]pyrimidin-6-amine]

Source: patent US9242987B2, “Heterocyclyl pyrazolopyrimidine analogues as JAK inhibitors” (Cellzome Limited, priority 2009, dated 2016)
